Assay results taken from patent publication US5874086A, “Synthesis and use for the treatment of osteoporosis” (Syntex (U.S.A,), Inc., priority 1994, dated 1999).
Where no end group is shown, it is not given here. [ ]: non-standard residue; d: D form. The star is where a group is joined. hSer(lactone) = O=C1OCC[C@@H]1N*

Assays:
ovariectomized rats = test: Effect on bone mass (bone calcium) in ovariectomized rats; assay type: in vivo, Sprague-Dawley female rats
Method: Bone Dis. 5:177 181 (1984).
Adult Sprague-Dawley female rats were acclimatized, weight grouped (n=9, 10 or 12), and subjected to bilateral ovariectomy (OVX) or sham surgery. Dosing was initiated 17 days after surgery and continued for 20 days. Test compound was administered subcutaneously once a day in 2% rat serum/saline vehicle.
After 20 days of dosing, the rats were sacrificed and the right femurs excised. The femurs were cut in half and the distal half femurs (DHF) were further separated into trabecular bone (TB) and cortical bone (CB) by drilling out the trabeculae. Calcium was extracted and measured by Calcette calcium analyzer and expressed as mean bone Ca in mg/DHF/100 g body weight.
The two sample t-test was used to compare OVX and sham groups. One-way ANOVA was used to compare OVX groups, followed by Fisher's LSD multiple comparison to compare each treatment group to vehicle.

[1] = system: ovariectomized adult female rats; details: daily subcutaneous injections; cited from earlier work
[2] = system: normal and osteoporotic adult female rats; details: daily subcutaneous doses; cited from earlier work
healthy adult male rats = details: daily subcutaneous injections for 12 days; cited from earlier work
[3] = 80 μg/kg/day subcutaneously once a day, 20 days of dosing

Molecule: AVSEHQLLHDKGKSIQDLRRRELLEKLLEKLHTX [Compound 49]
- Total Bone Calcium (% increase over OVX) (ovariectomized rats; 40 ug/kg/day, 10 d of dosing): 93%

Molecule: AVSEHQLLHDKGKSIQDLRRRELLEKLLEKLP-NH2 (AVSEHQLLHDKGKSIQDLRRRELLEKLLEKLP-NH2) [Compound 42]
- Total Bone Calcium (% increase over OVX) (ovariectomized rats; 40 ug/kg/day, 5 d of dosing): 60%

Molecule: AVSEHQLLHDKGKSIQDLRRRELLEKLLEKLHTA-OH [Compound 2]
- Total Bone Calcium (% increase over OVX) (ovariectomized rats; [3]): 66-114%
- Trabecular Bone Calcium (% increase over OVX) (ovariectomized rats; [3]): 87-102%

Molecule: AVSEHQLLHDKGKSIQDLRRRELLEKLLEKLHTX (AVSEHQLLHDKGKSIQDLRRRELLEKLLEKLHT[hSer(lactone)]) [Compound 4, X = hSerlac; homoserine lactone peptide]
- Total Bone Calcium (% increase over OVX) (ovariectomized rats; 40 ug/kg/day, 5 d of dosing): 55%
- Total Bone Calcium (% increase over OVX) (ovariectomized rats; 40 ug/kg/day, 10 d of dosing): 79%
- Total Bone Calcium (% increase over OVX) (ovariectomized rats; 40 ug/kg/day, 20 d of dosing): 79-105%
- Total Bone Calcium (% increase over OVX) (ovariectomized rats; [3]): 88-114%

Molecule: hPTH(1-34): N-terminal (1-34) fragment of human parathyroid hormone (SVSEIQLMHNLGKHLNSMERVEWLRKKLQDVHNF; Parathyroid hormone; UniProt P01270 32-65, looked up, fragment)
- Loss of trabecular bone after ovariectomy [1]: completely reversed the loss of trabecular bone
- Whole body calcium and ash weight of individual bones [2]: increased
- Trabecular and cortical bone calcium and dry weight (healthy adult male rats): increased

B1: bPTH(1-84): bovine parathyroid hormone, single polypeptide chain of 84 amino acid residues (protein, UniProt P01268 32-115, looked up)
Parathyroid hormone: AVSEIQFMHNLGKHLSSMERVEWLRKKLQDVHNFVALGASIAYRDGSSQRPRKKEDNVLVESHQKSLGEADKADVDVLIKAKPQ
modifications: Parathyroid hormone
notes: bovine parathyroid hormone, single polypeptide chain of 84 amino acid residues
- Whole body calcium and ash weight of individual bones [2]: increased
